{
  "source": "patent US20240197927A1",
  "about": "“COMBINATION COMPRISING A NEUROTENSIN RECEPTOR BINDING COMPOUND, GEMCITABINE AND NAB-PACLITAXEL” (Fusion Pharmaceuticals Inc., priority 2021, published 2024)",
  "key": {"[1]": {"target": "neurotensin receptor 2 (NTR2) (Homo sapiens, UniProt O95665)", "sequence (O95665 whole entry, species assumed)": "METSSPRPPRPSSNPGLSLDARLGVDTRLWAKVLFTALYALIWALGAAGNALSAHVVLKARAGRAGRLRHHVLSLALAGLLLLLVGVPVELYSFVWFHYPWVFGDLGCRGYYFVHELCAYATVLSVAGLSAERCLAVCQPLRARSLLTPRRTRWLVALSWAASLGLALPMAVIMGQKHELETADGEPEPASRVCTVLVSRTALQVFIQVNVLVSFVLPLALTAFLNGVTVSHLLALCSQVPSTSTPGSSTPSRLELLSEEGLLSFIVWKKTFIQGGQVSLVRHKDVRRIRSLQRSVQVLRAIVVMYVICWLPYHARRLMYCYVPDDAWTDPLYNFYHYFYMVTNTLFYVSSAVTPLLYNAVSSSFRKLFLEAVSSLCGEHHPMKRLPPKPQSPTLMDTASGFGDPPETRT", "settings": "unlike NTR1; cited from earlier work"}, "metastatic PDAC [2]": {"test_system": "metastatic PDAC", "settings": "patients with metastatic PDAC; p<0.001; cited from earlier work"}, "[3]": {"assay": "Toxicity: weight loss of treated mice", "format": "in vivo", "settings": "AsPC-1 study mice; combination Groups 2E, 5E, 6E; Gemcitabine/Abraxane Group 3E; ^177Lu-IPN01087 Groups 4E, 7E", "description": "^177Lu-IPN01087 and the reference substances were administered by intravenous injection (IV) into the caudal vein via a catheter. The recommended pH formulation for IV administration is pH 4.5-8.0. […]"}, "[4]": {"test_system": "subcutaneous HT-29 tumors", "assay": "Efficacy study on mice bearing subcutaneous HT-29 tumors (tumor volume)", "format": "in vivo", "description": "The HT-29 cell line was established from the primary tumor of a patient with colon adenocarcinoma (Fogh J et al., J. Natl. Cancer Inst. 1977 Jul. 59(1): 221-26).\n(§1) Tumor cells were grown as monolayer at 37° C. in a humidified atmosphere (5% CO2, 95% air). The culture medium was RPMI 1640 containing 2 mM L-glutamine supplemented with 10% fetal bovine serum. For experimental use, tumor cells were detached from the culture flask using accutase and neutralized by the addition of complete culture medium. The cells were counted, and viability exceeded 85% as assessed by 0.25% trypan blue exclusion assay. Two frozen pellets of HT29 tumor cells were prepared: one frozen cell pellet prepared during the in-vitro cell culture, and one frozen cell pellet prepared using the cell suspension used for tumor induction in mice.\nHealthy female Swiss Nude mice (Crl:NU(Ico)-Foxn1nu), 7 weeks old at reception, were obtained from Charles River.\nTumors were induced by subcutaneous injection of 1×10^7 HT29 cells in 200 μL of RPMI 1640 medium containing matrigel (50:50, v:v, ref: 356237, BD Biosciences, France) into the right flank (in the axis of the heart) of 160 animals. HT29 tumor cell implantation was performed 24 hours after a whole-body irradiation with a gamma source (2 Gy (Nude mice), 60Co, BioMep, France). The day of tumor induction was considered as the day −11 (D-11). […]"}, "[5]": {"test_system": "subcutaneous AsPC1 tumors", "assay": "Efficacy study on mice bearing subcutaneous AsPC-1 tumors (tumor volume)", "format": "in vivo", "description": "The AsPC 1 cell line was isolated from a metastatic site (ascites) from a patient (Chen W H. et al., In Vitro. 1982 Jan; 18(1):24-34).\nas §1, with “mice” for “mice.”\nHealthy female Swiss Nude mice (Crl:NU(Ico)-Foxn1^nu), 6 weeks old at reception, were obtained from Charles River.\nTumors were induced by subcutaneous injection of 1×10^7 AsPC 1 cells in 200 μL of RPMI 1640 medium containing matrigel (50:50, v:v, ref: 356237, BD Biosciences, France) into the right flank (in the axis of the heart) of 150 animals. AsPC 1 tumor cell implantation was performed 72 hours after whole-body irradiation with a gamma source (2 Gy (Nude mice), 60Co, BioMep, France).\nAnimals were randomized by individual tumor volume when tumors reach a mean volume of 150-200 mm3. […]"}, "metastatic PDAC [6]": {"test_system": "metastatic PDAC", "settings": "patients with metastatic PDAC, first-line; p<0.001; cited from earlier work"}, "[7]": {"settings": "in combination with gemcitabine and nab-paclitaxel chemotherapy regimen"}},
  "data": [
    {"molecule": "C[C@@H]1CN([C@H]2CC[C@](C#N)(c3ccc(F)cc3)CC2)CC[C@]1(C(=O)O)c1ccccc1", "note": "[levocabastine]", "values": [
      {"measurement": "affinity for NTR2", "setting": "[1]", "value": "high affinity"}
    ]},
    {"molecule": "FOLFIRINOX", "values": [
      {"measurement": "ORR", "setting": "metastatic PDAC [2]", "value": 31.6, "unit": "%"},
      {"measurement": "median OS", "setting": "metastatic PDAC [2]", "value": 11.1, "unit": "months"},
      {"measurement": "median PFS", "setting": "metastatic PDAC [2]", "value": 6.4, "unit": "months"}
    ]},
    {"molecule": "^177Lu-zalsenertant tetraxetan [^177Lu-IPN01087]", "values": [
      {"measurement": "mean weight losses", "setting": "[3]", "value": "−4% to −10%"},
      {"measurement": "overall effect in the HT-29 colon cancer model compared to chemotherapy or radiotherapy regimens alone", "setting": "[4]; [7]", "value": "improved tumor growth control"},
      {"measurement": "HT-29 tumor growth, effect as compared to the vehicles", "setting": "[4]; single treatments, FIG. 2: Group 3 (GEM-ABX), Group 4 (^177Lu-IPN01087 @17MBq), IV", "value": "inhibitory effect on tumor growth"},
      {"measurement": "overall effect in the AsPC-1 pancreatic cancer model compared to chemotherapy or radiotherapy regimens alone", "setting": "[5]; [7]", "value": "prolonged regression"},
      {"measurement": "AsPC-1 tumor growth, effect compared to the vehicles", "setting": "[5]; treatment alone, FIG. 7: Group 3E (GEM-ABX), Group 4E (^177Lu-IPN01087 @19MBq), IV", "value": "antitumor effect"}
    ]},
    {"molecule": "Nc1ccn([C@@H]2O[C@H](CO)[C@@H](O)C2(F)F)c(=O)n1", "note": "[gemcitabine]", "values": [
      {"measurement": "ORR", "setting": "metastatic PDAC [2]", "value": 9.4, "unit": "%"},
      {"measurement": "median OS", "setting": "metastatic PDAC [2]", "value": 6.8, "unit": "months"},
      {"measurement": "median PFS", "setting": "metastatic PDAC [2]", "value": 3.3, "unit": "months"},
      {"measurement": "overall response rate (ORR)", "setting": "metastatic PDAC [6]", "value": 7, "unit": "%"},
      {"measurement": "overall survival (OS)", "setting": "metastatic PDAC [6]", "value": 6.7, "unit": "months"},
      {"measurement": "progression-free survival (PFS)", "setting": "metastatic PDAC [6]", "value": 3.7, "unit": "months"}
    ]}
  ]
}
